Reference: patent US20240043808A1, “Screenable Liver Disease Models and Methods” (INSPHERO AG, priority 2016, published 2024)
Entries after “also recorded” stand apart in the source; their conditions may differ. Like-named read-outs stand apart in the source and are kept apart here.

Tests used:
[1] = tested on: triple/co-cultured (HepaRG THP1/hTERT-HSC) liver MT; experiment: MTT viability of liver MT stimulated with inflammatory and pro-fibrotic stimuli; type: cell-based, human; details: co-cultured microtissues, 14 days of treatment
[2] = tested on: mono-cultured (HepaRG) and triple/co-cultured (HepaRG THP1/hTERT-HSC) liver MT; experiment: Gene expression of fibrotic markers and cytokines in liver MT exposed to LPS, TNF-α and TGF-β1; type: cell-based, human; details: for IL-6 gene induction: HepaRG monocultures
Source text: Induction of fibrosis biomarkers, Collagen I and IV upon treatment with inflammation-stimuli LPS or TNF-α and pro-fibrotic TGF-β1 signaling molecule. […] Actin was used as reference gene for each sample. ND: no-detected values. *; P≤0.05.
In order to assess the responsiveness towards prototypic inflammatory stimuli and pro-fibrotic stimuli on a gene-expression level, mono-cultured (HepaRG) and triple/co-cultured (HepaRG THP1/hTERT-HSC) liver MT were stimulated with inflammatory inducers (LPS or TNF-α) and the pro-fibrotic cytokine TGF-β1 to assess the cellular responses. Significant differences in the responses of the two types of MT were observed (FIG. 4). […] For example, mRNA of collagen I was only detected in the co-culture system, but not in the monocultures.

liver microtissues [3] = experiment: ATP measurement after exposure of liver microtissues to free fatty acids; type: cell-based; details: increasing concentrations of FFA for 3-14 days; control BSA
Description: FIG. 3A(3): ATP measurements from identical groups after exposure to increasing concentrations of FFA for 3-14 days.
(§1) • Dissolve FFA-free BSA at RT for 1h in H2O for desired stock solution concentration • Dissolve desired amount of OA-Na in 1 mL 0.1 M NaOH-->at 70° C. • Dissolve desired amount of PA-Na 1 mL 0.1 M NaOH-->at 70° • Keep the FFAs on 70° C., while the BSA is placed on 37° C. • Mix FFA with BSA with a magnetic stirrer (for 30 min) • Dilute BSA with 0.1 M NaOH->vehicle control • Cool down to RT, sterile filter, aliquot and freeze. • For a final fatty acid (FA) solution dilute master stock in medium. • Replace medium of liver microtissues with FA-containing medium and incubate 2-7 days.

liver microtissues [4] = experiment: Lipid loading of liver microtissues, nile-red staining of lipid accumulation (steatosis); type: cell-based; details: for lipid accumulation in microtissues: increasing concentrations of free fatty acid, nile-red staining
Description: FIG. 3A(1): Induction of liver-disease phenotype “steatosis” as determined by lipid accumulation. […] Images are depicted as maximal intensity projections.
FIG. 3A (2): Lipid accumulation in dependency of increasing concentrations of PA, OA or a combination thereof in a molar ratio of 2:1. The total amount of FFA was identical among the groups at a given concentration.
as §1

[5] = tested on: liver endothelial cells (LEC); details: 5 days treatment, sub-toxic doses, LEC-coated microtissues
Source text: FIG. 7: Assessment of LEC-specific toxicity.
Spheroidal liver microtissues containing hepatocytes and Kupffer cells were coated with liver endothelial cells (LEC) and subjected to 5 days treatment with sub-toxic doses of Acetaminophen (APAP), Cyclophosphamide and Monocrotaline (FIG. 7). After the treatment, microtissues were collected, formalin fixed and paraffin embedded, sliced and stained by immunohistochemistry for the LEC-marker CD31.

[6] = tested on: liver MT triple-culture (hepatocyte+inflammatory cells+stellate cells); experiment: Pro-fibrotic gene expression in liver MT triple-culture treated with pro-fibrotic compounds; details: co-cultured microtissues, 14 days
Description: MT mRNA was extracted using TRIzol conventional procedure and fold induction were calculated as 2^(−ΔΔCT) for each sample and negative control and expressed as mean fold induction±S.E.M. of three replicates with six MTs each. Actin was used as reference gene for each sample.

[7] = tested on: liver MT triple-culture (hepatocyte+inflammatory cells+stellate cells); experiment: Viability of liver MT triple-culture treated with pro-fibrotic compounds; details: co-cultured microtissues, exposure over 14 days
[8] = tested on: Human liver microtissues (+Kupffer cells) with stellate cells; experiment: Inhibition of fibrosis progression, immunohistochemical staining of collagen I; type: cell-based; details: 7 days treatment, stellate cell comprising microtissues, in presence of TGF-β1
Source text: FIG. 6: Therapeutic effect of inhibition of pro-fibrotic effector pathways (TGF-βR, TK-R) was confirmed in triple co-culture liver MTs. Human liver MTs prepared form primary human hepatocytes, primary human Kupffer cells and primary human stellate cells where treated with TGF-β1 alone, or in combination with undisclosed inhibitors of i) TGF-β1 receptor, ii) ALK5, and iii) Tyrosine Kinase receptors.
Human liver microtissues (+Kupffer cells) without stellate cells and with either a stellate cell line or primary human stellate cells were treated with a fibrosis inducer (TGF-β1) and in combination with an undisclosed fibrosis inhibitor. […] Even more pronounced is the difference between TGF-β1 treated stellate cell comprising microtissues and TGF-β1/inhibitor treated cultures.

In the case of TNF-α, the cellular viability [1] is reported as “increased cellular viability” and the IL-6 gene induction [2] is reported as “strongly responsive”.
In the case of CCCCCCCCCCCCCCCC(=O)O [PA, palmitic acid], the ATP (liver microtissues [3]) is reported as “decreased values in microtissues exposed to PA4 and higher”, the “steatosis phenotype (lipid droplets in hepatocytes)” value (liver microtissues [4]) is reported as “rather macrovesicular phenotype” and the “lipid accumulation in microtissues” value (liver microtissues [4]) is reported as “reduced lipid incorporation at concentrations higher than PA3”. The “lipid accumulation in microtissues” value (liver microtissues [4]; listed as Palmitate) was “induced lipid accumulation”.
C[C@H]1C(=O)O[C@@H]2CCN3CC=C(COC(=O)[C@](C)(O)[C@]1(C)O)[C@H]23 [monocrotalin, Monocrotaline] was tested, and the “LEC-marker CD31 (immunohistochemistry)” value [5] was “heavily reduced or completely absent” and the “LEC-marker CD31 (immunohistochemistry)” value ([5]; listed as Monocrotaline) was “reduced LEC-presence”.
For CCCCCCCC/C=C\CCCCCCCC(=O)O [OA, Oleate], the “steatosis phenotype (lipid droplets in hepatocytes)” value (liver microtissues [4]; FIG. 3A1) was “small lipid droplets (microvesicular steatosis)”.
CC(=N)S [TAA, Thiocetamide] was tested, and the “transcriptional induction of collagen I, collagen IV, fibronectin I and CD44” value [6] was “greatly enhanced; also recorded: dose-dependent transcriptional induction” and the MT viability [7] was “Dose-dependent loss of viability or metabolic activity; also recorded: dose-dependent decrease”.
With O=P1(N(CCCl)CCCl)NCCCO1 (centres unmarked) [cyclosphosphamide, Cyclophosphamide] the “LEC-marker CD31 (immunohistochemistry)” value [5] was “heavily reduced or completely absent” and the “LEC-marker CD31 (immunohistochemistry)” value ([5]; listed as Cyclosphosphamide) was “reduced LEC-presence”.
With “TGF-β1: pro-fibrotic cytokine, fibrosis inducer” the cellular viability [1] was “decreased viability”, the IL-6 gene induction [2] was “did not induce” and the IL-6 gene expression ([2]; co-cultures) was “observed in co-cultures”. The “fibrotic phenotype, collagen I deposition” value [8] was “severe fibrotic phenotype with collagen deposition”.
